Counter-ions that a name gives are not always drawn. Like-named read-outs stand apart in the source and are kept apart here.
Legend:
[1] = target: T1, Human DYRK1A (Homo sapiens, UniProt Q13627); assay: DYRK1A Kinase TR-FRET (IMAP-Tb) Assay; format: biochemical; details: TR-FRET (IMAP-Tb); ATP 70 μM; 37° C. for 60 minutes; averages of multiple runs; read-out: Enzyme IC50 (μM) DYRK1A
T1 construct: purchased Invitrogen PV3997
Text: DYRK1A Kinase TR-FRET (IMAP-Tb) Assay
The kinase TR-FRET (IMAP-Tb) assay uses a fluorescence labeled substrate peptide in the kinase reaction. Upon phosphorylation by the kinase, phosphopeptide is produced, which will be detected by the binding solution provided in IMAP TR-FRET binding kit. After the completion of the kinase reaction, the reaction will be stopped by adding the binding solution containing terbium tracer. This tracer is immobilized on the surface of the IMAP beads, which also contain metal ions on the beads that bind to the phospho-groups of the products. Thus the phosphorylated product of the reaction can enter into close proximity to the tracer, producing resonance energy transfer. Due to the long lifetime of terbium (Tb) fluorescence the detection can be run in time resolved mode, which virtually eliminates fluorescence interference from assay components or compounds.
The TR-FRET signal measurement from this assay, given as an IC50 measurement, is a measure of a test compound's ability to interfere with the phosphorylation of the peptide substrate, that is it inhibits the phosphorylation of the substrate peptide by DYRK1A, and is thus a measure of the test compound's ability to inhibit the activity of DYRK1A.
Materials and Reagents • 1. Human DYRK1A: from Invitrogen. Part #PV3997 • 2. Substrate Peptide: […] • 3. IMAP TR-FRET IPP Explorer Kit: from Molecular Devices. Part #R8157 • 4. Kinase Assay Buffer (KAB): 10 mM HEPES pH 7.0, 50 mM NaCl, 5 mM MgCl2, 1 mM DTT, 1 mM NaVO4, 200 ug/mL BSA (0.02%) • 5. Assay Plate: Remp polypropylene clear 384-well microplate. […] Detection Plate: Costa black 384-well microplate.
Assay Procedure: this Assay was Performed as Follows: • 1. Transfer 1.5 μL of 20× compound solution to each well of an assay plate. • 2. Add to each well 22.5 μL of KAB Buffer. • 3. Add to each well 3 μL of the solution of DYRK1A and ATP. […] Add to each well 3 μL of the substrate peptide. The assay concentration is 1.0 μM • 5. Incubate the assay plates at 37° C. for 60 minutes. • 6. Add 18 μL of Detection Solution (1:800 diluted Progress bead stock, 1:400 diluted Tb stock, 80% Buffer A, and 20% Buffer B) into each well of detection plates. • 7. Transfer 6 μL of assay solution from the assay plate to the detection plate. • 8. Shake detection plates for 30 minutes. • 9. Read plates in Envision with wavelength set at excitation 340 nm for Tb, emission 490 nm, and […] 520 nm. • 10.

[2] = target: T2, Human DYRK1B (Homo sapiens, UniProt Q9Y463); assay: DYRK1B Kinase TR-FRET (IMAP-Tb) Assay; format: biochemical
T2 construct: purchased Invitrogen PR8350B (former PV4649)
T2 sequence (Q9Y463 whole entry): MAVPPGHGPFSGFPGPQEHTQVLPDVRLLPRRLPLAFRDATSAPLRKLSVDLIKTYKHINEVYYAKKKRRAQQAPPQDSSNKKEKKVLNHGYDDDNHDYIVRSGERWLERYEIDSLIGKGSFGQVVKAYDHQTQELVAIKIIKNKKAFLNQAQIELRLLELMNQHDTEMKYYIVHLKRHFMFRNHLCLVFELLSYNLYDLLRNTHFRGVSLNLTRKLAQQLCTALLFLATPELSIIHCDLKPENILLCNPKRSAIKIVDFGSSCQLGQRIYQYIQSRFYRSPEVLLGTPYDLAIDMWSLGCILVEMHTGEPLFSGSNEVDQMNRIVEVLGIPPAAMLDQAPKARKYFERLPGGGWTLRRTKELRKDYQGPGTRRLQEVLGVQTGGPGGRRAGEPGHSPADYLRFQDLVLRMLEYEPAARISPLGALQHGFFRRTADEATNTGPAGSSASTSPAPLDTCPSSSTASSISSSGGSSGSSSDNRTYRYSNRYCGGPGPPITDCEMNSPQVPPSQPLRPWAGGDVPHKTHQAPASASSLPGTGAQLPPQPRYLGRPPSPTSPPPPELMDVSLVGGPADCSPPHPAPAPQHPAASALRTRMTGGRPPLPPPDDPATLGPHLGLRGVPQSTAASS
Text: DYRK1B Kinase TR-FRET (IMAP-Tb) Assay Assay Principle The kinase TR-FRET (IMAP-Tb) assay uses a fluorescence labeled substrate peptide in the kinase reaction. Upon phosphorylation by the kinase, phosphopeptide is produced, which will be detected by the binding solution provided in IMAP TR-FRET binding kit. After the completion of the kinase reaction, the reaction will be stopped by adding the binding solution containing terbium tracer. This tracer is immobilized on the surface of the IMAP beads, which also contain metal ions on the beads that bind to the phospho-groups of the products. Thus the phosphorylated product of the reaction can enter into close proximity to the tracer, producing resonance energy transfer. Due to the long lifetime of terbium (Tb) fluorescence the detection can be run in time resolved mode, which virtually eliminates fluorescence interference from assay components or compounds. The TR-FRET signal measurement from this assay, given as an IC50 measurement, is a measure of a test compound's ability to interfere with the phosphorylation of the peptide substrate, that is it inhibits the phosphorylation of the substrate peptide by DYRK1B, and is thus a measure of the test compound's ability to inhibit the activity of DYRK1B. IC50 is the amount of test compound that inhibits 50% of the activity of DYRK1B in this assay. In some cases where the IC50 was not determined, then the % inhibition at 10 μM test compound concentration may be reported. Materials and Reagents • 1. Human DYRK1B: from Invitrogen. Part #PR8350B (former PV4649) • 2. Substrate Peptide: in-house synthesized: RRRFRPASPLRGPPK • 3. IMAP TR-FRET IPP Explorer Kit: from Molecular Devices. Part #R8157 • 4. Kinase Assay Buffer (KAB): 10 mM HEPES pH 7.0, 50 mM NaCl, 5 mM MgCl2, 1 mM DTT, 1 mM NaVO4, 200 μg/mL BSA (0.02%) • 5. Assay Plate: Remp polypropylene clear 384-well microplate. Cat#23490-102 • 6. Detection Plate: Costa black 384-well microplate. Cat #3710 Assay Procedure: this Assay was Performed as Follows: • 1. Transfer 1.5 μL of 20× compound solution to each well of an assay plate. • 2. Add to each well 22.5 μL of KAB Buffer. • 3. Add to each well 3 μL of the solution of DYRK1B and ATP. […] Add to each well 3 μL of the substrate peptide. The assay concentration is 1.0 μM • 5. Incubate the assay plates at 37° C. for 60 minutes. • 6. Add 18 μL of Detection Solution (1:800 diluted Progress bead stock, 1:400 diluted Tb stock, 80% Buffer A, and 20% Buffer B) into each well of detection plates. • 7. Transfer 6 μL of assay solution from the assay plate to the detection plate. • 8. Shake detection plates for 30 minutes. • 9. Read plates in Envision with wavelength set at excitation 340 nm for Tb, emission 490 nm, and […] 520 nm. • 10. Calculation: TR-FRET Signal=(Reading at […]/Reading at 490 nM)×2000000

[3] = system: SW620 human colon cancer cells; assay: SW620 Cell Viability Assay; format: cell-based; details: SW-620, 96 h, CellTiter-Glo Luminescent Cell Viability Assay, 4 days incubation, read-out: Cellular EC50 (μM) SW620
Procedure: SW620 Cell Viability Assay
1. Cell Plate Preparation: SW620 human colon cancer cells (known to express DYRK1B), obtained from ATCC, were seeded into 96-well plates at 3×10^3 cells/well in 50 μL of media. • Harvested the required number of cells (counts & viability determined by Guava Viacount). • Centrifuge cells to pellet and removed supernant. • Resuspended in growth media (50 μL/well) & pipetted thoroughly to break up clumps. • Setup for ˜100 wells/plate, therefore, VT=5 mL/plate @ […].
1A. Some cells (S—) were allowed to attach for 24 hrs, serum starved for 48 hrs, and then followed with test compound treatments.
Test compound solution were prepared in regular corresponding media supplemented with serum.
2. Test compound Preparation: Drugs were solubilized in either DMSO or media and prepared at various stock concentrations. • All compounds were incubated at 37° C. for 30 minutes and vortexed. • (5 mM stocks of test compound were prepared for non-soluble test compounds)
3. Test compound Plate Preparation: • The 10 mM test compound stock was diluted to a concentration of 100× the final Cmax concentration. • Then the test compound stock is diluted 50-fold in media and/or second test compound for a final Cmax concentration in the test compound plate. • The Cmax in the test compound plate (2% DMSO) is 2-fold higher than the final Cmax in the cell plate (60 μl, titrations were 1:3).
4. Viability Assay: This assay was performed as follows: • Transfer 50 μL of test compound solution per well from the test compound plate onto the cell plate prepared in Step #1. • Mix the plate with treated cells by pipetting up and down three times with 200 μL multi-channel pipette. • Incubate the cells in 5% CO2 incubator @ 37° C. for 4 days. • Run the CellTiter-Glo™ Luminescent Cell Viability Assay.
The results of this assay, given as EC50 values, indicate the concentration of test compound that inhibits tumor cell proliferation by 50%.

[4] = TR-FRET (IMAP-Tb), ATP 70 μM, 37° C. for 60 minutes, averages of multiple runs, read-out: Enzyme IC50 (μM) DYRK1B

SMILES	IC50 [1]	IC50 [2, 4]	EC50 [3]	IC50 [2]
N[C@H]1CC[C@H](Nc2ncc3c(-c4cccc(NCc5ccccc5)n4)n[nH]c3n2)CC1 [Example 49, N-[3-(6-Benzylamino-pyridin-2-yl)-1H-pyrazolo[3,4-d]pyrimidin-6-yl]-cyclohexane-1,4-diamine]	0.0124 µM	0.101 µM	1.71 µM	–
Clc1cccc(CNc2nccc(-c3n[nH]c4nc(NCCN5CCOCC5)ncc34)n2)c1 [Example 62, {3-[2-(3-Chloro-benzylamino)-pyrimidin-4-yl]-1H-pyrazolo[3,4-d]pyrimidin-6-yl}-(2-morpholin-4-yl-ethyl)-amine; hydrochloride]	0.0384 µM	0.0586 µM	> 10 µM	–
c1cc(-c2n[nH]c3nc(NCCN4CCOCC4)ncc23)nc(NCc2ccsc2)n1 [Example 77, (2-Morpholin-4-yl-ethyl)-(3-{2-[(thiophen-3-ylmethyl)-amino]-pyrimidin-4-yl}-1H-pyrazolo[3,4-d]pyrimidin-6-yl)-amine; hydrochloride]	0.0129 µM	0.04 µM	5.99 µM	–
c1ccc(CNc2nccc(-c3n[nH]c4nc(NCCN5CCOCC5)ncc34)n2)cc1 [Example 61, [3-(2-Benzylamino-pyrimidin-4-yl)-1H-pyrazolo[3,4-d]pyrimidin-6-yl]-(2-morpholin-4-yl-ethyl)-amine; hydrochloride]	0.061 µM	0.0958 µM	> 10 µM	–
Clc1ccccc1CNc1nccc(-c2n[nH]c3nc(NCCN4CCOCC4)ncc23)n1 [Example 63, {3-[2-(2-Chloro-benzylamino)-pyrimidin-4-yl]-1H-pyrazolo[3,4-d]pyrimidin-6-yl}-(2-morpholin-4-yl-ethyl)-amine; hydrochloride]	0.0371 µM	0.0671 µM	0.9 µM	–
NCCC(Nc1nccc(-c2n[nH]c3nc(NCCN4CCOCC4)ncc23)n1)c1ccccc1 (centres unmarked) [Example 81, N1-{4-[6-(2-Morpholin-4-yl-ethylamino)-1H-pyrazolo[3,4-d]pyrimidin-3-yl]-pyrimidin-2-yl}-1-phenyl-propane-1,3-diamine; hydrochloride]	0.112 µM	0.0944 µM	1.75 µM	–
NCC(Nc1nccc(-c2n[nH]c3nc(NCCN4CCOCC4)ncc23)n1)c1ccccc1 (centres unmarked) [Example 83, N1-{4-[6-(2-Morpholin-4-yl-ethylamino)-1H-pyrazolo[3,4-d]pyrimidin-3-yl]-pyrimidin-2-yl}-1-phenyl-ethane-1,2-diamine; hydrochloride]	–	–	0.56 µM	0.0183 µM
N[C@H]1CC[C@H](Nc2ncc3c(-c4cccc(NCc5ccsc5)c4)n[nH]c3n2)CC1 [Example 58, N-(3-{3-[(Thiophen-3-ylmethyl)-amino]-phenyl}-1H-pyrazolo[3,4-d]pyrimidin-6-yl)-cyclohexane-1,4-diamine]	2.61 µM	0.762 µM	6.41 µM	–
Clc1ccc(CNc2nccc(-c3n[nH]c4nc(NCCN5CCOCC5)ncc34)n2)cc1 [Example 64, {3-[2-(4-Chloro-benzylamino)-pyrimidin-4-yl]-1H-pyrazolo[3,4-d]pyrimidin-6-yl}-(2-morpholin-4-yl-ethyl)-amine; hydrochloride]	0.242 µM	0.353 µM	> 10 µM	–
NCCC(Nc1cccc(-c2n[nH]c3nc(N[C@H]4CC[C@H](N)CC4)ncc23)c1)c1ccccc1 (some centres unmarked) [Example 79, N-{3-[3-(3-Amino-1-phenyl-propylamino)-phenyl]-1H-pyrazolo[3,4-d]pyrimidin-6-yl}-cyclohexane-1,4-diamine; hydrochloride]	1.11 µM	0.601 µM	> 10 µM	–
Clc1ccc(CNc2cccc(-c3n[nH]c4nc(NCCN5CCOCC5)ncc34)n2)cc1 [Example 48, {3-[6-(4-Chloro-benzylamino)-pyridin-2-yl]-1H-pyrazolo[3,4-d]pyrimidin-6-yl}-(2-morpholin-4-yl-ethyl)-amine]	2.96 µM	2.92 µM	–	–
N[C@H]1CC[C@H](Nc2ncc3c(-c4ccnc(NCc5cccc(F)c5)n4)n[nH]c3n2)CC1 [Example 85, N-{3-[2-(3-Fluoro-benzylamino)-pyrimidin-4-yl]-1H-pyrazolo[3,4-d]pyrimidin-6-yl}-cyclohexane-1,4-diamine; hydrochloride]	0.0046 µM	< 0.0046 µM	–	–
N[C@H]1CC[C@@H](Nc2ncc3c(-c4ccnc(NCc5cccc(Cl)c5)n4)n[nH]c3n2)CC1 [Example 89, N-{3-[2-(3-Chloro-benzylamino)-pyrimidin-4-yl]-1H-pyrazolo[3,4-d]pyrimidin-6-yl}-cyclohexane-1,4-diamine; hydrochloride]	0.415 µM	0.186 µM	–	–
